The source of these data is patent US10919908B2, “Thienopyrimidinone derivative and application thereof in preparing anticancer drug” (Henan Genuine Biotech Co., Ltd., priority 2017, dated 2021).

Where only a bound is given, the exact number is not on record here.

The test system of test [1] is Multiple myeloma tumor cells (H929). Put plainly: In vitro cytotoxicity, MTT assay, 48 hours exposure. It counts as cell-based. The conditions noted are these: Homo sapiens, NCI-H929, MTT cell viability. As for the experimental part: Multiple myeloma tumor cells (H929) were used for toxicity studies, and the cells were distributed in microtiter plates and exposed to the compounds tested for 48 hours.

The next test concerns the target Mcl-1 protein (Homo sapiens, UniProt Q07820). Put plainly: Inhibition of Mcl-1 activity by fluorescence polarization (FP) competition with a fluorescein-labeled ligand. The test is classed as binding. The following applies: 10 nM Mcl-1 protein, 10 nM labeled ligand, 2 hours at room temperature.

Mcl-1 protein, sequence (Q07820 whole entry): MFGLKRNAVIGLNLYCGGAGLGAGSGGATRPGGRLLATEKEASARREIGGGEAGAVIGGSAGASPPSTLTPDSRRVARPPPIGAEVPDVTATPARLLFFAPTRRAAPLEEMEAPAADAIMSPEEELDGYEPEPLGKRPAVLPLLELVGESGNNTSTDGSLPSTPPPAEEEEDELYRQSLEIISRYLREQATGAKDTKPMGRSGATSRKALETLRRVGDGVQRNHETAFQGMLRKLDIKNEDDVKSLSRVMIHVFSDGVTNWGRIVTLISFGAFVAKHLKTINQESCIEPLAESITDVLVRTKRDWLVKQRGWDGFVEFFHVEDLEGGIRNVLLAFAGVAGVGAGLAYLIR

Consider `Cc1c(-c2c(-c3ccc(F)o3)sc3ncnc(O[C@@H](C(=O)O)C(F)(F)c4ccccc4OCc4ccnn4CC(F)(F)F)c23)ccc(OCCN2CCN(C)CC2)c1Cl` [Compound 102], for which the concentration for half-maximal inhibition (IC50) in test [1] is greater than 10 nM; at Mcl-1 protein, less than 1 nM.

Consider `Cc1c(-c2c(-c3ccc(F)o3)sc3ncnc(O[C@H](C(=O)O)C(F)(F)c4ccccc4OCc4ccnn4CC(F)(F)F)c23)ccc(OCCN2CCN(C)CC2)c1Cl` [Compound 103], for which the IC50 in test [1] was greater than 10 nM; at Mcl-1 protein it was 1 to 10 nM.

In turn, `Cc1c(-c2c(-c3ccc(F)o3)sc3ncnc(O[C@H](Cc4ccccc4OCc4ccnn4CC(F)(F)F)C(=O)O)c23)ccc(OCCN2CCN(C)CC2)c1Cl` [II, reference compound] displayed a 50% inhibitory concentration (IC50) in test [1] greater than 10 nM.
